In ChEMBL document CHEMBL1127778, “Structure-activity relationship of novel distamycin a derivatives : synthesis and antitumor activity” (Bioorg Med Chem Lett, 1994):
In brackets after ≈: the same amount, converted by molar mass.

Columns and labels:
L1210 [1] = test: In vitro inhibitory activity against Doxorubicin resistant L1210 leukemia cell lines ( ratio between IC50 values on resistant cells and sensitive cells); format: functional, Mus musculus
L1210 [2] = test: In vitro inhibitory activity against FCE 24517 resistant L1210 leukemia cell lines ( ratio between IC50 values on resistant cells and sensitive cells); format: functional, Mus musculus
L1210 [3] = test: Optimal dose was measured in vivo on L1210 murine leukemia cells in CD2F1 mice(ip); format: functional, Mus musculus
L1210 [4] = test: The activity in vitro on L1210 murine leukemia cells, activity expressed as IC50; format: functional, cell-based, Mus musculus
Mus musculus = test: Median survival time of treated mice / Median survival time of controls x100 was measured in vivo on L1210 murine leukemia cells; format: functional
[5] = Mus musculus, L1210, read-out: IC50

Row | SMILES | R.I (L1210 [1]) | R.I (L1210 [2]) | OD (L1210 [3]) [mg/kg] | IC50 (L1210 [4]; [5]) [µg/mL] | T/C (Mus musculus) [%] | IC50 (L1210 [4]; l1210) [µg/mL]
1 | C=C(Cl)C(=O)Nc1cc(C(=O)Nc2cc(C(=O)Nc3cc(C(=O)NCCC(=N)N)n(C)c3)n(C)c2)n(C)c1.Cl | 40.3 | 24.8 | 10 | 0.056 | 184 | –
2 | O=C(O)C1CO1 (stereo not drawn) | 1 | 0.5 | – | – | – | 131.397 (≈ 1490 µM)
3 | Cn1cc(NC(=O)c2cc(NC(=O)c3cc(NC=O)cn3C)cn2C)cc1C(=O)NCCC(=N)N [STALLIMYCIN] | 45.6 | 14.1 | 200 | 5.22 (≈ 10.8 µM) | 113 | –
4 | C=C(Br)C(=O)Nc1cc(C(=O)Nc2cc(C(=O)Nc3cc(C(=O)NCCC(=N)N)n(C)c3)n(C)c2)n(C)c1.Cl | 8.8 | 11.4 | 12.5 | 0.0496 | 175 | –
5 | C=C(Br)C(=O)O | 1.1 | 0.5 | – | 18.8 (≈ 125 µM) | – | –
6 | C=C(Cl)C(=O)Nc1cc(C(=O)Nc2cc(C(=O)Nc3cc(C(=O)Nc4cc(C(=O)NCCC(=N)N)n(C)c4)n(C)c3)n(C)c2)n(C)c1.Cl | 59.9 | 69.6 | 3.125 | 0.0027 | 171 | –
7 | Cl.Cn1cc(NC(=O)c2cc(NC(=O)c3cc(NC(=O)c4cc(NC=O)cn4C)cn3C)cn2C)cc1C(=O)NCCC(=N)N | 175.4 | 169.9 | – | 0.285 | – | –
8 | Cl.Cn1cc(NC(=O)c2cc(NC(=O)c3cc(NC(=O)c4ccc(N(CCCl)CCCl)cc4)cn3C)cn2C)cc1C(=O)NCCC(=N)N [TALLIMUSTINE CHLORIDE] | 28 | 21.7 | 3.125 | 0.0244 | 175 | –
9 | C=C(Br)C(=O)Nc1cc(C(=O)Nc2cc(C(=O)Nc3cc(C(=O)Nc4cc(C(=O)NCCC(=N)N)n(C)c4)n(C)c3)n(C)c2)n(C)c1.Cl | 3.8 | 27 | 3.125 | 0.0047 | 206 | –
10 | Cl.Cn1cc(NC(=O)c2cc(NC(=O)c3cc(NC(=O)c4cc(NC(=O)c5ccc(N(CCCl)CCCl)cc5)cn4C)cn3C)cn2C)cc1C(=O)NCCC(=N)N | – | 65.4 | 0.39 | 0.0163 | 138 | –
11 | Cl.Cn1cc(NC(=O)c2cc(NC(=O)c3cc(NC(=O)c4cc(NC(=O)C5CO5)cn4C)cn3C)cn2C)cc1C(=O)NCCC(=N)N (stereo not drawn) | 1.7 | 24.1 | 3.125 | 0.0389 | 188 | –
12 | Cl.Cn1cc(NC(=O)c2cc(NC(=O)c3cc(NC(=O)C4CO4)cn3C)cn2C)cc1C(=O)NCCC(=N)N (stereo not drawn) | 7.1 | 44.4 | 50 | 0.229 | 188 | –
